Marks after values point to notes of the source that are not given here.
Assay: physchem
Type: physicochemical
Procedure: Measurement of Log P values as provided herein was performed according to EEC directive 79/831 Annex V.A8 by HPLC (High Performance Liquid Chromatography) on reversed phase columns with the following methods: […] If more than one Log P value is available within the same method, all the values are given and separated by “+”. Calibration was done with straight-chain alkan2-ones (with 3 to 16 carbon atoms) with known Log P values (measurement of Log P values using retention times with linear interpolation between successive alkanones). Lambda-max-values were determined using UV-spectra from 200 nm to 400 nm and the peak values of the chromatographic signals

Compound	LogP
Cc1ccc(C(F)(F)CNC(=O)c2ccncc2Oc2cccc(C(F)(F)F)c2)c(C)c1 [Compound I-015]	3.84^[a]
Cc1ccc(CONC(=O)c2cc(Cl)ncc2Oc2cccc(C(F)(F)F)c2)c(C)c1 [Compound I-017]	4.26^[a]
Cc1cc(C(=O)NC(C)c2cn(C)c3ccccc23)c(Oc2cccc(C(F)(F)F)c2)cn1 (stereo not shown) [Compound I-020]	3.64^[a]
CC(NC(=O)c1cc(Cl)ncc1Oc1cccc(C(F)(F)F)c1)c1cn(C)c2cc(Cl)ccc12 (stereo not shown) [Compound I-021]	4.68^[a]
CCc1cc(C(=O)NCC(F)c2ccc(F)cc2F)c(Oc2cccc(C(F)(F)F)c2)cn1 (stereo not shown) [Compound I-022]	4.66^[a]
Cc1ccc(C(F)(F)CNC(=O)c2cc(Cl)ncc2Oc2cccc(C(F)(F)F)c2C)c(C)c1 [Compound I-023]	5.14^[a]
O=C(NCC(F)c1ccc(Cl)cc1Cl)c1cc(C2CC2)ncc1Oc1cccc(C(F)(F)F)c1 (stereo not shown) [Compound I-024]	4.96^[a]
Cc1ccc(CCNC(=O)c2cc(Cl)ncc2Oc2cccc(OC(F)(F)F)c2)c(C)c1 [Compound I-025]	4.97^[a]
CCc1cc(C(=O)NCC(F)(F)c2ccc(C)cc2C)c(Oc2cccc(C(F)(F)F)c2)cn1 [Compound I-026]	4.58^[a]
Cc1ccc(CCNC(=O)c2cc(C)ncc2Oc2cccc(C(F)(F)F)c2)c(C)c1 [Compound I-028]	4.03^[a]
C#Cc1ccc(C(F)(F)CNC(=O)c2cc(Cl)ncc2Oc2cccc(C(F)(F)F)c2)c(Cl)c1 [Compound I-029]	4.53^[a]
CCc1cc(C(=O)NCCc2ccc(C)cc2C)c(Oc2cccc(C(F)(F)F)c2)cn1 [Compound I-030]	4.49^[a]
C#Cc1cc(C(=O)NC(C)c2cn(C)c3cc(Cl)ccc23)c(Oc2cccc(C(F)(F)F)c2)cn1 (stereo not shown) [Compound I-031]	4.27^[a]
C#Cc1cc(C(=O)NCC(F)(F)c2ccc(C)cc2C)c(Oc2cccc(C(F)(F)F)c2)cn1 [Compound I-032]	4.39^[a]
Cc1ccc(C(F)(F)CNC(=O)c2cc(C)ncc2Oc2cccc(C(F)(F)F)c2)c(Cl)c1 [Compound I-033]	4.19^[a]
Cc1ccc(C(F)(F)CNC(=O)c2cc(Cl)ncc2Oc2cccc(Cl)c2)c(C)c1 [Compound I-036]	4.74^[a]
Cc1ccc(C(F)(F)CNC(=O)c2cc(Cl)ncc2Oc2cccc(C(F)F)c2)c(C)c1 [Compound I-038]	4.35^[a]
Cc1ccc(CCNC(=O)c2cc(Cl)ncc2Oc2cccc(C(F)F)c2)c(C)c1 [Compound I-039]	4.30^[a]
COc1cccc(Oc2cnc(Cl)cc2C(=O)NCC(F)(F)c2ccc(C)cc2C)c1 [Compound I-042]	4.46^[a]
Cc1cccc(Oc2cnc(Cl)cc2C(=O)NCC(F)(F)c2ccc(C)cc2C)c1 [Compound I-044]	4.85^[a]
Cc1cccc(Oc2cnc(Cl)cc2C(=O)NCCc2ccc(C)cc2C)c1 [Compound I-045]	4.84^[a]
O=C(NCC(F)(F)c1ccc(Br)cc1Cl)c1c(Oc2cccc(C(F)(F)F)c2)cnc(Cl)c1I [Compound I-046]	4.96^[a]
Cc1cccc(Oc2cnc(C)cc2C(=O)NCC(F)(F)c2ccc(C)cc2C)c1 [Compound I-047]	4.08^[a]
COc1cccc(Oc2cnc(Cl)cc2C(=O)NCC(F)(F)c2ccc(C)cc2Cl)c1 [Compound I-048]	3.67^[a]

Compound	LogP
Cc1ccc(C(F)(F)CNC(=O)c2cc(C)ncc2Oc2cccc(C(F)F)c2)c(C)c1 [Compound I-049]	3.73^[a]
C=C(OCC)c1cc(C(=O)NCCc2ccc(C)cc2C)c(Oc2cccc(C(F)(F)F)c2)cn1 [Compound I-051]	4.84^[a]
Cc1ccc(C(F)(F)CNC(=O)c2cc(C)ncc2Oc2cccc(Cl)c2)c(C)c1 [Compound I-058]	4.13^[a]
Cc1ccc(CCNC(=O)c2cc(C#N)ncc2Oc2cccc(C(F)(F)F)c2)c(C)c1 [Compound I-059]	4.39^[a]
Cc1ccc(C(F)(F)CNC(=O)c2cc(Cl)ncc2Oc2cccc(C3CC3)c2F)c(C)c1 [Compound I-061]	5.11^[a]
Cc1ccc(CCNC(=O)c2cc(Cl)ncc2Oc2cccc(C3CC3)c2F)c(C)c1 [Compound I-062]	5.11^[a]
Cc1ccc(C(F)(F)CNC(=O)c2cc(Cl)ncc2Oc2cccc(C3CC3)c2)c(C)c1 [Compound I-065]	5.17^[a]
O=C(NCC(F)(F)c1ccc(Br)cc1Cl)c1cc(Cl)ncc1Oc1cccc(C2CC2)c1 [Compound I-066]	5.36^[a]
Cc1ccc(C(F)(F)CNC(=O)c2cc(C)ncc2Oc2cccc(Cl)c2)c(Cl)c1 [Compound I-067]	4.06^[a]
Cc1cccc(Oc2cnc(C)cc2C(=O)NCC(F)(F)c2ccc(C)cc2Cl)c1 [Compound I-068]	4.06^[a]
Cc1ccc(C(F)(F)CNC(=O)c2cc(C)ncc2Oc2cccc(C3CC3)c2F)c(C)c1 [Compound I-069]	4.46^[a]
Cc1ccc(C(F)(F)CNC(=O)c2cc(C)ncc2Oc2cccc(C3CC3)c2)c(C)c1 [Compound I-070]	4.44^[a]
Cc1ccc(C(F)(F)CNC(=O)c2cc(C)ncc2Oc2cccc(C3CC3)c2)c(Cl)c1 [Compound I-071]	4.39^[a]
C=Cc1cc(C(=O)NCC(F)(F)c2ccc(C)cc2C)c(Oc2cccc(C3CC3)c2)cn1 [Compound I-072]	5.05^[a]
O=C(NCC(F)(F)c1ccc(C2CC2)cc1Cl)c1cc(Cl)ncc1Oc1cccc(C2CC2)c1F [Compound I-075]	5.31^[a]
Cc1ccc(CCNC(=O)c2cc(N3CCCC3)ncc2Oc2cccc(C(F)(F)F)c2)c(C)c1 [Compound I-088]	4.26^[a]
Cc1ccc(C(F)(F)CNC(=O)c2cc(C)ncc2Oc2cccc(C3CC3)c2F)c(Cl)c1 [Compound I-089]	4.47^[a]
Cc1ccc(C(F)(F)CNC(=O)c2cc(Cl)nc(F)c2Oc2cccc(C(F)(F)F)c2)c(C)c1 [Compound I-092]	5.04^[a]
CO/N=C(\C)c1cc(C(=O)NCCc2ccc(C)cc2C)c(Oc2cccc(C(F)(F)F)c2)cn1 [Compound I-093]	5.36^[a]
CO/N=C(/C)c1cc(C(=O)NCCc2ccc(C)cc2C)c(Oc2cccc(C(F)(F)F)c2)cn1 [Compound I-094]	4.85^[a]
Cc1ccc(CCNC(=O)c2cc(Cl)ncc2Oc2cccc(C(F)(F)F)c2)o1 [Compound I-095]	4.05^[a]
Cc1cnn(CCNC(=O)c2cc(Cl)ncc2Oc2cccc(C(F)(F)F)c2)c1 [Compound I-096]	3.14^[a]
O=C(NCCc1cccs1)c1cc(Cl)ncc1Oc1cccc(C(F)(F)F)c1 [Compound I-097]	3.98^[a]
O=C(NCCn1cc(Cl)cn1)c1cc(Cl)ncc1Oc1cccc(C(F)(F)F)c1 [Compound I-098]	3.40^[a]

Compound	LogP
O=C(NCCc1ncc(Cl)cn1)c1cc(Cl)ncc1Oc1cccc(C(F)(F)F)c1 [Compound I-099]	3.34^[a]
O=C(NCCc1ccc2[nH]ccc2c1)c1cc(Cl)ncc1Oc1cccc(C(F)(F)F)c1 [Compound I-100]	3.71^[a]
O=C(NCCc1cccc2[nH]ccc12)c1cc(Cl)ncc1Oc1cccc(C(F)(F)F)c1 [Compound I-101]	3.71^[a]
CC(NC(=O)c1cc(Cl)ncc1Oc1cccc(C(F)(F)F)c1)c1ccc(Cl)s1 (stereo not shown) [Compound I-103]	4.47^[a]
O=C(NCCc1ccc2c(c1)CCO2)c1cc(Cl)ncc1Oc1cccc(C(F)(F)F)c1 [Compound I-104]	3.98^[a]
O=C(NCCc1ccc2c(c1)OCCO2)c1cc(Cl)ncc1Oc1cccc(C(F)(F)F)c1 [Compound I-105]	3.84^[a]
CC(C)Oc1ccc(CCNC(=O)c2cc(Cl)ncc2Oc2cccc(C(F)(F)F)c2)cn1 [Compound I-106]	4.08^[a]
O=C(NCCc1ccc(C(F)(F)F)cn1)c1cc(Cl)ncc1Oc1cccc(C(F)(F)F)c1 [Compound I-107]	3.91^[a]
O=C(NCCc1ccc2c(c1)OCO2)c1cc(Cl)ncc1Oc1cccc(C(F)(F)F)c1 [Compound I-108]	3.87^[a]
O=C(NCCc1cnc(C(F)(F)F)nc1)c1cc(Cl)ncc1Oc1cccc(C(F)(F)F)c1 [Compound I-110]	3.57^[a]
Cc1ccc(CCNC(=O)c2cc(Cl)ncc2Oc2ccc(C(F)(F)F)c(Cl)c2)c(C)c1 [Compound I-111]	4.48^[a]
Cc1ccc(CCNC(=O)c2cc(C(C)O)ncc2Oc2cccc(C(F)(F)F)c2)c(C)c1 (stereo not shown) [Compound I-112]	3.67^[a]
Cc1ccc(CCNC(=O)c2cc(C(C)F)ncc2Oc2cccc(C(F)(F)F)c2)c(C)c1 (stereo not shown) [Compound I-114]	4.62^[a]
Cc1ccc(CCNC(=O)c2cc(C(F)(F)F)ncc2Oc2cccc(C3CC3)c2F)c(C)c1 [Compound I-116]	5.38^[a]
Cn1cc(-c2ccc(C(F)(F)CNC(=O)c3cc(Cl)ncc3Oc3cccc(C(F)F)c3)c(Cl)c2)cn1 [Compound I-117]	3.64^[a]
COCCc1cc(C(=O)NCCc2ccc(C)cc2C)c(Oc2cccc(C(F)(F)F)c2)cn1 [Compound I-118]	4.16^[a]
CC(=O)c1ccc(C(F)(F)CNC(=O)c2cc(Cl)ncc2Oc2cccc(C(F)F)c2)c(Cl)c1 [Compound I-119]	3.81^[a]
CCOC(=O)c1ccc(C(F)(F)CNC(=O)c2cc(Cl)ncc2Oc2cccc(C(F)F)c2)c(Cl)c1 [Compound I-120]	4.47^[a]
Cc1ccc(CCNC(=O)c2cc(C3CCOC3)ncc2Oc2cccc(C(F)(F)F)c2)c(C)c1 (stereo not shown) [Compound I-121]	4.30^[a]
Cc1ccc(CCNC(=O)c2cc(C3CCCC3)ncc2Oc2cccc(C(F)(F)F)c2)c(C)c1 [Compound I-122]	5.57^[a]
C=Cc1ccc(C(F)(F)CNC(=O)c2cc(Cl)ncc2Oc2cccc(C(F)F)c2)c(Cl)c1 [Compound I-123]	4.47^[a]
Cc1ccc(CCNC(=O)c2cc(Cl)ncc2Oc2cccc(C#N)c2F)c(C)c1 [Compound I-126]	3.91^[a]

From patent US12552748B2, “Pyridine (thio)amides as fungicidal compounds” (Bayer Aktiengesellschaft, priority 2020, dated 2026)
